Experimental data: patent US11076595B2, “1-(n,n-disubstituted carbamoyl) 4-(substituted sulfonyl)triazolin-5-one derivative, 4-(n,n-disubstituted carbamoyl) 1-(substituted sulfonyl)triazolin-5-one derivative, and herbicide containing said derivative as active ingredient” (HOKKO CHEMICAL INDUSTRY CO., LTD., priority 2017, dated 2021)

Experiments:
Format in all cases: in vivo
[1] = tested on: Echinochloa crus-galli; assay: Test Example 12: herbicidal effect test by treatment during growing period in paddy field; conditions: 120 g/10a; treatment seven days after sowing in flooded paddy pot; assessed 14 days after treatment
Method: (§1) This test was performed with two replications per one formulation concentration plot, and 14 days after the formulation treatments, the weed suppression rate (%) was determined according to the following equation (Math. 2). Weed suppression rate (%)=(1−average dry weight (g) of plants in treated plots/average dry weight (g) of plants in untreated plots)×100 [Math. 2]
(§2) A Wagner pot having an area of 1/10000 are was filled with paddy field soil and after adding water, a chemical fertilizer (N:P:K=17:17:17) was mixed, followed by puddling. Thereafter, 30 grains of each of Echinochloa crus-galli, broad-leaved weed (Lindernia pyxidaria, Monochoria vaginalis) and Scirpus juncoides seeds were sown to a depth of 0 to 1 cm. Immediately after the sowing, the pot was flooded, and the depth of water was kept at about 3 cm. The pot was subsequently managed in a glass greenhouse. Seven Days after sowing, an emulsifiable concentrate prepared according to Formulation Example 15 by using the compound shown in Table 10 below was diluted with water, and a predetermined amount of the water-diluted formulation was added dropwise. The application rate of the active ingredient, by conversion, corresponded to 120 g per 10 are. The test was performed with two replications per one formulation concentration plot, and 14 days after the formulation treatments, the weed suppression rate (%) was determined according to the equation (Math. 2).

[2] = tested on: Lindernia pyxidaria; assay: as above; conditions: 120 g/10a; treatment seven days after sowing in flooded paddy pot; assessed 14 days after treatment
Method: as §1, §2

[3] = tested on: Monochoria vaginalis; assay: as above; conditions: 120 g/10a; treatment seven days after sowing in flooded paddy pot; assessed 14 days after treatment
Method: as §1, §2

[4] = tested on: Scirpus juncoides; assay: as above; conditions: 120 g/10a; treatment seven days after sowing in flooded paddy pot; assessed 14 days after treatment
Method: as §1, §2

[5] = tested on: Echinochloa crus-galli; assay: Test Example 11: herbicidal effect test by soil treatment in paddy field; conditions: 120 g/10a active ingredient, 14 days after treatment
Source text: as §2, with “greenhouse. Just” for “greenhouse. Seven Days”, “after that,” for “after sowing,”, “Table 9” for “Table 10”, “are.” for “are. The test was performed with two replications per one formulation concentration plot, and 14 days after the formulation treatments, the weed suppression rate (%) was determined according to the equation (Math. 2).”
as §1

[6] = tested on: Lindernia pyxidaria; assay: as above; conditions: 120 g/10a active ingredient, 14 days after treatment
Source text: as §2, with “greenhouse. Just” for “greenhouse. Seven Days”, “after that,” for “after sowing,”, “Table 9” for “Table 10”, “are.” for “are. The test was performed with two replications per one formulation concentration plot, and 14 days after the formulation treatments, the weed suppression rate (%) was determined according to the equation (Math. 2).”
as §1

[7] = tested on: Monochoria vaginalis; assay: as above; conditions: 120 g/10a active ingredient, 14 days after treatment
Source text: as §2, with “greenhouse. Just” for “greenhouse. Seven Days”, “after that,” for “after sowing,”, “Table 9” for “Table 10”, “are.” for “are. The test was performed with two replications per one formulation concentration plot, and 14 days after the formulation treatments, the weed suppression rate (%) was determined according to the equation (Math. 2).”
as §1

[8] = tested on: Scirpus juncoides; assay: as above; conditions: 120 g/10a active ingredient, 14 days after treatment
Source text: as §2, with “greenhouse. Just” for “greenhouse. Seven Days”, “after that,” for “after sowing,”, “Table 9” for “Table 10”, “are.” for “are. The test was performed with two replications per one formulation concentration plot, and 14 days after the formulation treatments, the weed suppression rate (%) was determined according to the equation (Math. 2).”
as §1

| SMILES | Weed suppression rate (%) Echinochloa crus-galli [1] | Weed suppression rate (%) Lindemia pyxidaria [2] | Weed suppression rate (%) Monochoria vaginalis [3] | Weed suppression rate (%) Scirpus juncoides [4] | Weed suppression rate (%) Echinochloa crus-galli [5] | Weed suppression rate (%) Lindemia pyxidaria [6] | Weed suppression rate (%) Monochoria vaginalis [7] | Weed suppression rate (%) Scirpus juncoides [8] |
| --- | --- | --- | --- | --- | --- | --- | --- | --- |
| CC(C)N(C(=O)n1cnn(S(C)(=O)=O)c1=O)c1ccccc1F [Compound 11-2] | 90% | 90% | 80% | 90% | 90% | 80% | 80% | 90% |
| CC(C)N(C(=O)n1cnn(S(C)(=O)=O)c1=O)c1cccc(F)c1 [Compound 11-3] | 90% | 80% | 80% | 90% | 90% | 80% | 80% | 90% |
| CC(C)N(C(=O)n1cnn(S(C)(=O)=O)c1=O)c1ccc(F)c(F)c1F [Compound 11-15] | 70% | 60% | 60% | 100% | 90% | 70% | 60% | 60% |
| CC(C)N(C(=O)n1cnn(S(C)(=O)=O)c1=O)c1ccc(Cl)cc1F [Compound 11-20] | 70% | 40% | 60% | 60% | 70% | 40% | 40% | 80% |
| CC(C)N(C(=O)n1cnn(S(=O)(=O)C(C)C)c1=O)c1cccc(F)c1 [Compound 11-50] | 90% | 80% | 80% | 90% | 90% | 80% | 80% | 90% |
| CC(C)N(C(=O)n1cnn(S(=O)(=O)C(C)C)c1=O)c1ccc(Br)cc1Cl [Compound 11-70] | 100% | 70% | 90% | 100% | 100% | 100% | 90% | 100% |
| Cc1cc(N(C(=O)n2cnn(S(=O)(=O)C(C)C)c2=O)C(C)C)no1 [Compound 11-91] | 90% | 80% | 80% | 90% | 90% | 80% | 80% | 90% |
| CN(C(=O)n1cnn(S(=O)(=O)C2CC2)c1=O)c1ccc(F)cc1F [Compound 11-140] | 100% | 70% | 70% | 100% | 90% | 70% | 70% | 80% |
| CC(C)N(C(=O)n1cnn(S(=O)(=O)C2CC2)c1=O)c1cccc(F)c1 [Compound 11-161] | 90% | 80% | 80% | 90% | 100% | 100% | 70% | 90% |
| CC(C)N(C(=O)n1cnn(S(=O)(=O)C2CC2)c1=O)c1c(F)c(F)cc(F)c1F [Compound 11-197] | 100% | 80% | 100% | 90% | 100% | 100% | 70% | 100% |
| CC(C)N(C(=O)n1cnn(S(=O)(=O)C2CC2)c1=O)c1ccc(Cl)cc1Br [Compound 11-210] | 90% | 80% | 80% | 90% | 90% | 90% | 80% | 90% |
| CC(C)N(C(=O)n1cnn(S(=O)(=O)C2CC2)c1=O)c1ccc(C(F)(F)F)cc1Cl [Compound 11-220] | 90% | 90% | 90% | 80% | 100% | 90% | 60% | 90% |
| Cc1ccc(S(=O)(=O)n2ncn(C(=O)N(c3ccc(Br)cc3Cl)C(C)C)c2=O)cc1 [Compound 11-648] | 60% | 60% | 70% | 90% |  |  |  |  |
| Cc1cc(C)c(S(=O)(=O)n2ncn(C(=O)N(c3ccc(C(F)(F)F)cc3F)C(C)C)c2=O)c(C)c1 [Compound 11-880] |  |  |  |  | 80% | 80% | 100% | 30% |
| CC(C)N(C(=O)n1cnn(S(=O)(=O)N(C)C)c1=O)c1c(F)c(F)cc(F)c1F [Compound 11-1069] | 90% | 70% | 70% | 60% |  |  |  |  |
| CN(C(=O)n1cnn(S(=O)(=O)c2ccc(Cl)cc2)c1=O)c1ccc(F)cc1F [Compound 11-1134] | 80% | 70% | 70% | 100% |  |  |  |  |
| CN(C(=O)n1cnn(S(=O)(=O)c2ccc(C(C)(C)C)cc2)c1=O)c1ccc(F)cc1F [Compound 11-1141] | 90% | 70% | 80% | 60% |  |  |  |  |
